{"source": "patent US20150181873A1", "about": "“HERBICIDE-RESISTANT SUNFLOWER PLANTS, POLYNUCLEOTIDES ENCODING HERBICIDE=RESISTANT ACETO HYDROXY ACID SYNTHASE LARGE SUBUNIT PROTEINS, AND METHODS OF USE” (NIDERA S.A., priority 2013, published 2015)", "type_in_all_cases": "in vivo, Helianthus annuus", "key": {"[1]": {"system": "sunflower hybrid TH9 (A205V)", "assay": "Greenhouse imazapir dose response, TH9", "conditions": "14 DAT", "procedure": "(§1) A greenhouse study was conducted to quantify and contrast the imazapir sensivity of the mutants A122T and A205V in different genetic backgrounds at the whole plant level in sunflower. Seeds of the different sunflower lines that were used in this study were obtained under field conditions.\n(§2) Seeds were sown in Petri dishes and, after germination, plantlets were transplanted to pots of 10 cm of diameter in a potting media consisting of equal parts of vermiculite, soil and sand. Plants were grown in a greenhouse under natural light conditions supplemented with 400 W sodium halide lamps to provide a 16 hrs daylength. Day/night temperatures were 25 and 20° C., respectively. At the V2 stage 10 plants of each genotype were randomly assigned to each treatment consisting of […] imazapir doses (0, 40, 80, 160, 240, 320, 400 and 480 g ai/ha), and a zero-time biomass determination. Experiment was arranged as a randomized block design with a full factorial (sunflower line×treatment) arrangement of treatments and 10 replications.\n(§3) On the day of herbicide application ten plants of each genotype were cut at the cotyledonal node and dried at 60° C. for 48 hrs zero-time for dried weight determination. […] Height was determined as the distance between the cotyledonal node and the apex of each plant. For root biomass determination, each plant was taken from the pot and the potting media was washed out from the roots. Above ground biomass data from each line were converted to biomass accumulation after application by subtracting the appropriate average zero-time biomass from each sample. Dry biomass data were converted to percentages of the untreated control plants within each line to allow direct comparisons between groups."}, "[2]": {"system": "sunflower line IB920 (A205V)", "assay": "Greenhouse imazapir dose response, IB920", "conditions": "14 DAT", "procedure": "as §1, §2, §3"}, "[3]": {"system": "sunflower genotypes carrying the A122T mutation event", "assay": "Greenhouse imazapir dose response, A122T genotypes together", "conditions": "A122T mean, 14 DAT", "procedure": "as §1, §2, §3"}}}
{"smiles": "CC(C)C1(C)N=C(c2ncccc2C(=O)O)NC1=O", "note": "(stereo not drawn) [Imazapyr, imazapyr]", "values": [{"measurement": "Phytotoxicity Index", "setting": "[1]; 0.5x (40 g ai/ha)", "result": 0}, {"measurement": "biomass accumulation, % of untreated", "setting": "[1]; 0.5x (40 g ai/ha)", "result": 91.7, "unit": "%"}, {"measurement": "plant height, % of untreated", "setting": "[1]; 0.5x (40 g ai/ha)", "result": 100.0, "unit": "%"}, {"measurement": "root dry weight, % of untreated", "setting": "[1]; 0.5x (40 g ai/ha)", "result": 81.5, "unit": "%"}, {"measurement": "Phytotoxicity Index", "setting": "[1]; 1x (80 g ai/ha)", "result": 0}, {"measurement": "biomass accumulation, % of untreated", "setting": "[1]; 1x (80 g ai/ha)", "result": 81.7, "unit": "%"}, {"measurement": "plant height, % of untreated", "setting": "[1]; 1x (80 g ai/ha)", "result": 100.0, "unit": "%"}, {"measurement": "root dry weight, % of untreated", "setting": "[1]; 1x (80 g ai/ha)", "result": 84.9, "unit": "%"}, {"measurement": "Phytotoxicity Index", "setting": "[1]; 2x (160 g ai/ha)", "result": 1.6}, {"measurement": "biomass accumulation, % of untreated", "setting": "[1]; 2x (160 g ai/ha)", "result": 54.7, "unit": "%"}, {"measurement": "plant height, % of untreated", "setting": "[1]; 2x (160 g ai/ha)", "result": 78.9, "unit": "%"}, {"measurement": "root dry weight, % of untreated", "setting": "[1]; 2x (160 g ai/ha)", "result": 58.8, "unit": "%"}, {"measurement": "Phytotoxicity Index", "setting": "[1]; 3x (240 g ai/ha)", "result": 5.1}, {"measurement": "biomass accumulation, % of untreated", "setting": "[1]; 3x (240 g ai/ha)", "result": 35.7, "unit": "%"}, {"measurement": "plant height, % of untreated", "setting": "[1]; 3x (240 g ai/ha)", "result": 50.0, "unit": "%"}, {"measurement": "root dry weight, % of untreated", "setting": "[1]; 3x (240 g ai/ha)", "result": 34.1, "unit": "%"}, {"measurement": "Phytotoxicity Index", "setting": "[1]; 4x (320 g ai/ha)", "result": 8.4}, {"measurement": "biomass accumulation, % of untreated", "setting": "[1]; 4x (320 g ai/ha)", "result": 25.3, "unit": "%"}, {"measurement": "plant height, % of untreated", "setting": "[1]; 4x (320 g ai/ha)", "result": 38.1, "unit": "%"}, {"measurement": "root dry weight, % of untreated", "setting": "[1]; 4x (320 g ai/ha)", "result": 27.3, "unit": "%"}, {"measurement": "Phytotoxicity Index", "setting": "[1]; 5x (400 g ai/ha)", "result": 8.9}, {"measurement": "biomass accumulation, % of untreated", "setting": "[1]; 5x (400 g ai/ha)", "result": 19.8, "unit": "%"}, {"measurement": "plant height, % of untreated", "setting": "[1]; 5x (400 g ai/ha)", "result": 31.8, "unit": "%"}, {"measurement": "root dry weight, % of untreated", "setting": "[1]; 5x (400 g ai/ha)", "result": 29.9, "unit": "%"}, {"measurement": "Phytotoxicity Index", "setting": "[1]; 6x (480 g ai/ha)", "result": 8.9}, {"measurement": "biomass accumulation, % of untreated", "setting": "[1]; 6x (480 g ai/ha)", "result": 19.5, "unit": "%"}, {"measurement": "plant height, % of untreated", "setting": "[1]; 6x (480 g ai/ha)", "result": 34.7, "unit": "%"}, {"measurement": "root dry weight, % of untreated", "setting": "[1]; 6x (480 g ai/ha)", "result": 22.1, "unit": "%"}, {"measurement": "biomass accumulation, % of untreated", "setting": "[2]; 0.5x (40 g ai/ha)", "result": 93.9, "unit": "%"}, {"measurement": "plant height, % of untreated", "setting": "[2]; 0.5x (40 g ai/ha)", "result": 96.2, "unit": "%"}, {"measurement": "root dry weight, % of untreated", "setting": "[2]; 0.5x (40 g ai/ha)", "result": 94.0, "unit": "%"}, {"measurement": "biomass accumulation, % of untreated", "setting": "[2]; 1x (80 g ai/ha)", "result": 87.9, "unit": "%"}, {"measurement": "plant height, % of untreated", "setting": "[2]; 1x (80 g ai/ha)", "result": 80.0, "unit": "%"}, {"measurement": "root dry weight, % of untreated", "setting": "[2]; 1x (80 g ai/ha)", "result": 89.6, "unit": "%"}, {"measurement": "biomass accumulation, % of untreated", "setting": "[2]; 2x (160 g ai/ha)", "result": 58.8, "unit": "%"}, {"measurement": "plant height, % of untreated", "setting": "[2]; 2x (160 g ai/ha)", "result": 61.5, "unit": "%"}, {"measurement": "root dry weight, % of untreated", "setting": "[2]; 2x (160 g ai/ha)", "result": 50.7, "unit": "%"}, {"measurement": "biomass accumulation, % of untreated", "setting": "[2]; 3x (240 g ai/ha)", "result": 46.4, "unit": "%"}, {"measurement": "plant height, % of untreated", "setting": "[2]; 3x (240 g ai/ha)", "result": 40.9, "unit": "%"}, {"measurement": "root dry weight, % of untreated", "setting": "[2]; 3x (240 g ai/ha)", "result": 37.3, "unit": "%"}, {"measurement": "biomass accumulation, % of untreated", "setting": "[2]; 4x (320 g ai/ha)", "result": 35.5, "unit": "%"}, {"measurement": "plant height, % of untreated", "setting": "[2]; 4x (320 g ai/ha)", "result": 27.9, "unit": "%"}, {"measurement": "root dry weight, % of untreated", "setting": "[2]; 4x (320 g ai/ha)", "result": 32.8, "unit": "%"}, {"measurement": "biomass accumulation, % of untreated", "setting": "[2]; 5x (400 g ai/ha)", "result": 33.9, "unit": "%"}, {"measurement": "plant height, % of untreated", "setting": "[2]; 5x (400 g ai/ha)", "result": 30.0, "unit": "%"}, {"measurement": "root dry weight, % of untreated", "setting": "[2]; 5x (400 g ai/ha)", "result": 25.4, "unit": "%"}, {"measurement": "biomass accumulation, % of untreated", "setting": "[2]; 6x (480 g ai/ha)", "result": 29.4, "unit": "%"}, {"measurement": "plant height, % of untreated", "setting": "[2]; 6x (480 g ai/ha)", "result": 27.1, "unit": "%"}, {"measurement": "root dry weight, % of untreated", "setting": "[2]; 6x (480 g ai/ha)", "result": 19.4, "unit": "%"}, {"measurement": "biomass accumulation, Dif with control", "setting": "[3]; 0.5x (40 g ai/ha)", "result": 1.1, "unit": "%"}, {"measurement": "plant height, Dif with Control", "setting": "[3]; 0.5x (40 g ai/ha)", "result": 0.6, "unit": "%"}, {"measurement": "root dry weight, Dif with control", "setting": "[3]; 0.5x (40 g ai/ha)", "result": 0.1, "unit": "%"}, {"measurement": "biomass accumulation, Dif with control", "setting": "[3]; 1x (80 g ai/ha)", "result": 3.2, "unit": "%"}, {"measurement": "plant height, Dif with Control", "setting": "[3]; 1x (80 g ai/ha)", "result": 1.4, "unit": "%"}, {"measurement": "root dry weight, Dif with control", "setting": "[3]; 1x (80 g ai/ha)", "result": 2.5, "unit": "%"}, {"measurement": "biomass accumulation, Dif with control", "setting": "[3]; 2x (160 g ai/ha)", "result": 5.1, "unit": "%"}, {"measurement": "plant height, Dif with Control", "setting": "[3]; 2x (160 g ai/ha)", "result": 2.7, "unit": "%"}, {"measurement": "root dry weight, Dif with control", "setting": "[3]; 2x (160 g ai/ha)", "result": 5.9, "unit": "%"}, {"measurement": "biomass accumulation, Dif with control", "setting": "[3]; 3x (240 g ai/ha)", "result": 7.2, "unit": "%"}, {"measurement": "plant height, Dif with Control", "setting": "[3]; 3x (240 g ai/ha)", "result": 4.4, "unit": "%"}, {"measurement": "root dry weight, Dif with control", "setting": "[3]; 3x (240 g ai/ha)", "result": 10.6, "unit": "%"}, {"measurement": "biomass accumulation, Dif with control", "setting": "[3]; 4x (320 g ai/ha)", "result": 12.2, "unit": "%"}, {"measurement": "plant height, Dif with Control", "setting": "[3]; 4x (320 g ai/ha)", "result": 6.3, "unit": "%"}]}
